How the values were obtained:
[1] = test system: LNCaP cells; assay: MTT viability assay, LNCaP; assay type: cell-based; conditions: Homo sapiens, 1% FBS-containing or serum-free RPMI 1640 medium for 24 h
Experimental: (§1) The prostate cancer cell lines, LNCaP and PC-3, were purchased from American Type Culture Collection (Manassas, Va.) and maintained in RPMI 1640 medium containing 10% heat-inactivated fetal bovine serum at 37° C. in a humidified incubator containing 5% CO2. The LNCaP-abl cells were a generous gift from Dr. Qianben Wang (The Ohio State University). Normal prostate epithelial cells were purchased from Lonza (Walkersville, Md.) and were cultured in the vendor-recommended defined prostate epithelial cell growth medium. For experiments, LNCaP cells were plated on poly-D-lysine-coated culture flasks at a density of 12,000 cells per cm^2 surface area for 24 hours, followed by treatment with test agents in serum-free RPMI 1640 medium. The α- and γ-tocopherols were purchased from Sigma-Aldrich (St. Louis, Mo.). The tocopherol derivatives, α- and γ-VE5, were synthesized by the inventors.
LNCaP cells were plated into poly-D-lysine-coated 96-well plates and PC-3 and LNCaP-abl cells into uncoated plates at the density of 5,000 cells per well in the presence of 10% FBS. Normal prostate epithelial cells were plated into uncoated plates at a density of 8,000 cells per well. […] After 24 hours of treatment, cells were incubated with MTT [3-(4,5-dimethylthiazol-2-yl)-2,5-diphenyl-2H-tetrazolium bromide] (TCI America; 0.5 mg/ml, final concentration) for an additional 2 hours. The medium was then removed from each well and replaced with DMSO to dissolve the reduced MTT dye for subsequent colorimetric measurement of absorbance at 595 nm. Cell viabilities are calculated as percentages of that in the corresponding vehicle-treated control group.

[2] = test system: LNCaP-abl cells; assay: MTT viability assay, LNCaP-abl; assay type: cell-based; conditions: Homo sapiens; LNCaP-abl cells (comparable to parental LNCaP); read-out: IC50, antiproliferative effect
Experimental: as §1
LNCaP cells were plated into poly-D-lysine-coated 96-well plates and PC-3 and LNCaP-abl cells into uncoated plates at the density of 5,000 cells per well in the presence of 10% FBS. […] The medium was then removed from each well and replaced with DMSO to dissolve the reduced MTT dye for subsequent colorimetric measurement of absorbance at 595 nm. Cell viabilities are calculated as percentages of that in the corresponding vehicle-treated control group.

[3] = test system: LNCaP and PC-3 cells; assay: MTT viability assay, one value stated for both prostate cancer lines; assay type: cell-based; conditions: for IC50: Homo sapiens, MTT, serum-free medium, one value for LNCaP and PC-3, read-out: IC50, antiproliferative effect / viability; for potency relative to parent tocopherol: Ser-473-Akt dephosphorylation and viability of prostate cancer cells
Experimental: as §1
LNCaP cells were plated into poly-D-lysine-coated 96-well plates and PC-3 and LNCaP-abl cells into uncoated plates at the density of 5,000 cells per well in the presence of 10% FBS. Normal prostate epithelial cells were plated into uncoated plates at a density of 8,000 cells per well. Exposure to test agents in serum-free medium was initiated 24 hours later. After 24 hours of treatment, cells were incubated with MTT [3-(4,5-dimethylthiazol-2-yl)-2,5-diphenyl-2H-tetrazolium bromide] (TCI America; 0.5 mg/ml, final concentration) for an additional 2 hours. The medium was then removed from each well and replaced with DMSO to dissolve the reduced MTT dye for subsequent colorimetric measurement of absorbance at 595 nm. Cell viabilities are calculated as percentages of that in the corresponding vehicle-treated control group.

[4] = target: T1, PH domain of Akt (GST-PH domain fusion protein) (Homo sapiens, UniProt P31749); assay: Surface plasmon resonance binding, Akt PH domain; conditions: SPR, wild-type PH domain; means (n = 3) ± SD; read-out: Kd, Akt PH domain
T1 construct: made in house
T1 sequence (P31749 5-108 limits assumed): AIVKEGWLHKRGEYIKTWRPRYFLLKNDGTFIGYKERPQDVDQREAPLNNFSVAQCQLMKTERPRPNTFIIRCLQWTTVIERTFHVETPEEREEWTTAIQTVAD
Excerpt: The cDNA fragments corresponding to the putative PH domain sequences of PHLPP1 (+115 to +372), PDK1 (+1225 to +1671), Akt1 (+1 to +447) and ILK (+538 to +646) were PCR-amplified using the plasmids pcDNA-HA-PHLPP1, pWZL-Neo-Myr-FLAG-PDPK1, pcDNA-HA-PKB-T308D-S473D, and pCMV-SPORT-ILK (Addgene) as templates. The PCR products were then cloned into EcoRI/XhoI sites of the pGEX-4T1 expression vector (GE Healthcare Life Sciences) to generate four constructs (pGEX-4T1-PHLPP1, pGEX-4T1-PDPK1, pGEX-4T1-AKT1, pGEX-4T1-ILK) for the expression of GST-PH domain fusion proteins. The mutated Akt1 Y38G PH domain was generated from pGEX-4T1-AKT1 by site-directed mutagenesis using the QuikChange II XL Site-Directed Mutagenesis Kit (Agilent Technologies). The expression and purification of GST-PH domain fusion proteins were performed essentially as described previously. Thomas et al., Curr Biol 12, 1256 (2002). The purified PH domains were analyzed by SDS-PAGE using an overloaded gel with purities were estimated to be >95% using ImageJ software.
Binding experiments were performed using a Biacore T100 system (GE Healthcare, Piscataway, N.J.). The GST-PH domain fusion proteins were immobilized on a CM5 S Sensorchip using Biacore's Amine Coupling Kit to a level of 17,000 response units. VE5 compounds and di-octanoyl PIP3 at concentrations ranging from 0.1 to 100 μM and 1 to 20 μm, respectively, were injected at a high flow rate (30 μL/min) over the biosensor surface for binding analyses. DMSO concentrations in all samples and running buffer were 1% (v/v) or less. Data were analyzed using Biacore T100 Evaluation Software.

[5] = test system: mTORC2 (mTOR, rictor, SGK, PKCα); assay: Western blot of mTORC2 components and downstream targets; assay type: cell-based
Experimental: Cells were exposed to the test agents in 10-cm dishes for 24 hours and then collected by scraping. The cell pellets were washed once with PBS, and then lysed at 4° C. over 30 min of incubation in a sodium dodecyl sulfate (SDS) lysis buffer containing 1% SDS, 50 mM Tris HCl (pH 8.1), 10 mM EDTA and […] protease inhibitor cocktail (Sigma-Aldrich). The cell debris was pelleted by centrifugation for 20 min at 14,000×g, and 1 μl of each supernatant was used for determination of protein concentration using a colorimetric bicinchoninic assay (Pierce, Rockford, Ill.). The remaining sample was added to equal volume of 2×SDS-polyacrylamide gel electrophoresis sample loading buffer (62.5 mM Tris-HCl, pH 6.8, 4% SDS, 5% β-mercaptoethanol, 20% glycerol, 0.1% bromophenol blue), followed by incubation in boiling water for 5 min. Equivalent amounts of total protein were resolved in SDS-polyacrylamide gels, and then transferred to nitrocellulose membranes using a semidry transfer cell. The transblotted membrane was washed twice with Tris-buffered saline containing 0.1% Tween 20 (TBST). After blocking with TBST containing 5% nonfat milk for 40 min, the membrane was incubated with the appropriate primary antibody (1:1000) in TBST-1% nonfat milk at 4° C. overnight. The membrane was then washed three times with TBST for a total of 15 min, followed by incubation with goat anti-rabbit or anti-mouse IgG-horseradish peroxidase conjugates (1:2000) for 1 hour at room temperature and four washes with TBST for a total of 1 hour. The immunoblots were visualized by enhanced chemiluminescence (GE Healthcare Life Sciences).

| IC50 [1] [µM] | IC50 [3] [µM] | Kd [4] [nM] | IC50 ([1]; 24 h) [µM] | SMILES | IC50 [2] [µM] | potency relative to parent tocopherol [3] [fold] | potency relative to parent tocopherol ([3]; listed as a-VE5) [fold] | abundance or phosphorylation of mTORC2 components and targets (mTOR, rictor, SGK, PKCα) [5] |
| --- | --- | --- | --- | --- | --- | --- | --- | --- |
| 20 | 15 to 20 | 3400 |  | Cc1c(C)c2c(c(C)c1O)CC[C@@](C)(CCCC(C)C)O2 [α-VE5, (R)-2,5,7,8-tetramethyl-2-(4-methylpentyl)-chroman-6-ol] | 10 | 50 | 10 | lack of changes |
|  | 7 to 10 | 900 ± 100 | 12 | Cc1c(O)cc2c(c1C)O[C@](C)(CCCC(C)C)CC2 [γ-VE5, (R)-2,7,8-trimethyl-2-(4-methylpentyl)-chroman-6-ol] | 7 |  |  | lack of changes |

From US20140031388A1, “AKT INACTIVATION BY TOCOPHERYL DERIVATIVES” (priority 2012, published 2014)
